Key:
Type in all cases: physicochemical
[1] = Solubility of drospirenone in water and aqueous buffers; conditions: water and aqueous buffers at various pH values
[2] = In vitro dissolution, USP XXIII Paddle Method; conditions: micronized form; rapid dissolution defined as at least 70% over about 30 minutes from a 3 mg tablet in 900 ml of water at 37° C., apparatus 2 at 50 rpm
[3] = Chemical stability of drospirenone under acid and alkaline conditions

solubility [1]: sparingly soluble
dissolution of the active compound from the dosage unit in vitro [2]: rapid dissolution
stability under acid conditions ([3]; acid conditions): rearranged to an inactive isomer
stability under alkaline conditions ([3]; alkaline conditions): hydrolysed
Compound: C[C@]12CCC(=O)C=C1[C@@H]1C[C@@H]1[C@H]1[C@@H]3[C@@H]4C[C@@H]4[C@@]4(CCC(=O)O4)[C@@]3(C)CC[C@@H]12 [Drospirenone]

From patent US6869941B2, “Combination of drospirenone and an estrogen sulphamate for HRT” (Schering AG, priority 2001, dated 2005)
